Like-named read-outs stand apart in the source and are kept apart here.
Experiments:
[1] = molecular target: DCN1 (DCUND1) protein PONY domain (Homo sapiens (Human), UniProt Q96GG9); assay: TR-FRET assay (binding to DCN-1, displacement of FAM-labeled probe)
Summary of the method: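 Compounds read at 1, 5 and 24 h, 0.1% final DMSO, by TR-FRET between terbium-streptavidin on biotinylated DCN1 PONY domain (E. coli) and a FAM-tagged non-covalent inhibitor probe. Two setups used, 5 nM protein with 20 nM labelled probe, or 0.31 nM protein with 100 nM labelled plus 800 nM unlabelled probe; buffer had TritonX and 200 mM NaCl. % activity relative to high (with probe) and low (without probe) controls.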

DCN1 protein = DCN1 protein (Homo sapiens (Human), UniProt Q96GG9); assay: Intact protein MS analysis with the RapidFire-TOF system (covalent adduct formation); assay type: binding; details: 400 nM DCN1, incubated at room temperature for 3 hours
DCN1 protein, sequence (Q96GG9 whole entry): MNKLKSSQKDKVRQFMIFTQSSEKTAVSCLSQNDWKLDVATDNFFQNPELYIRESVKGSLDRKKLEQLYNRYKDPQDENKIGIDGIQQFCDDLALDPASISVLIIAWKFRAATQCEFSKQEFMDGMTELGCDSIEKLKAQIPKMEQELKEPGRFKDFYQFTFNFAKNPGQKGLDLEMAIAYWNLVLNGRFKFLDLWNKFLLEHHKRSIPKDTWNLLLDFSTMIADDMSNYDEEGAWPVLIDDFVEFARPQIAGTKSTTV
Method: (§1) DCN1 protein, His-TEV-DCN1, were expressed in E. Coli. The His-tagged protein was first purified with an Ni-NTA column. The His-tag was cleaved using His-tag TEV protease and the His-tags were removed using a second Ni-NTA column. Protein purity was verified with SDS-PAGE and intact MS. DCN1 was dissolved in a buffer containing 25 mM Tris-HCl, 200 mM NaCl, and 1 mM DTT at 400 nM. 11 concentrations of compounds were added to the DCN1 solution and incubated at room temperature for 3 hours, unless otherwise specified. The reaction plates were quenched by adding 0.2% formic acid. Quenched assay plates were analyzed with an Agilent RapidFire 360 system connected to an Agilent 6545 Q-TOF mass spectrometer equipped with an AJS source. 10 μL of sample volume was loaded onto a custom packed cartridge (4 μL, PLRP-S 30 μm/1000 Å pore; Optimize Technologies) with loading buffer (ddH2O with 0.09% (vol/vol) formic acid and 0.01% (vol/vol) trifluoroacetic acid; 1.25 ml/min) for 6 seconds before being eluted directly into the mass spectrometer in elution buffer (80% acetonitrile with 0.09% (vol/vol) formic acid and 0.01% (vol/vol) trifluoroacetic acid; 0.5 ml/min) for 7 seconds. The cartridge was re-equilibrated with loading buffer for 1 second before collection of the next sample. The Q-TOF was operated in TOF-only positive ionization mode set to the following parameters: Gas Temp=350 C, Drying Gas=7 l/min, Nebulizer=50 psi, Sheath Gas Temp=400 C, Sheath Gas Flow=12 l/min, VCap=4000 V, Nozzle Voltage=1000 V, Fragmentor=125 V, Skimmer=65 V and Oct 1 RF Vpp=750V. Raw MS data files were deconvoluted and analyzed using the Agilent MassHunter Bioconfirm software package to identify both parent protein and expected compound adduct mass signatures.
An MS assay was performed to evaluate the ability of the compounds to covalently modify DCN-1.
as §1, with “Vcap=4000” for “VCap=4000”

[2] = 24 hr after treatment with compound, read-out: TR FRET IC50 24 hr
[3] = read-out: TR FRET IC50 1 hr, 1 hr after treatment with compound
[4] = TR FRET IC50 1 hr (nM), 1 hr after treatment with compound

DCN1 (DCUND1) protein PONY domain, sequence (Q96GG9 60-248): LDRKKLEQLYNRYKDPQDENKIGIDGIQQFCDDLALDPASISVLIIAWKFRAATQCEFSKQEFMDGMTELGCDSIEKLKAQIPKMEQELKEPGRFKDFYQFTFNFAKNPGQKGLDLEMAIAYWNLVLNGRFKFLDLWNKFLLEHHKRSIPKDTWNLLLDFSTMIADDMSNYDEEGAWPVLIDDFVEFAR

CCN1C(=O)[C@@H](NC(=O)c2cccc(C(F)(F)F)c2)[C@@H](c2cccc(NC(=O)[C@H](C)Cl)c2)c2c(C)nn(-c3ccccc3)c21 (mixture of isomers) [Compound I-16]
IC50 [1, 2]: > 3000 nM
IC50 [1, 3]: > 3000 nM
Emax (DCN1 protein): 0 to 30%

CCN1C(=O)[C@@H](NC(=O)c2cccc(C(F)(F)F)c2)[C@@H](c2cccc(NC(=O)[C@H](F)Cl)c2)c2c(C)nn(-c3ccccc3)c21 (mixture of isomers) [Compound I-18]
IC50 [1, 2]: > 3000 nM
IC50 [1, 4]: > 3000 nM
Emax (DCN1 protein): 0 to 30%

CCN1C(=O)[C@H](NC(=O)c2cccc(C(F)(F)F)c2)[C@@H](c2ccccc2NC(=O)[C@H](C)Br)c2cnn(-c3ccccc3)c21 (mixture of isomers) [Compound I-72]
IC50 [1, 2]: 200 to 1000 nM
IC50 [1, 4]: 1000 to 3000 nM
Emax (DCN1 protein): 80 to 100%

CCN1C(=O)[C@H](NC(=O)c2cccc(C(F)(F)F)c2)[C@@H](c2cccc(NC(=O)[C@H](F)Cl)c2)c2c(C)nn(-c3ccccc3)c21 (mixture of isomers) [Compound I-150]
IC50 [1, 2]: 200 to 1000 nM
IC50 [1, 4]: 1000 to 3000 nM
Emax (DCN1 protein): 80 to 100%

C=C(CN1CCOCC1)C(=O)Nc1cccc([C@H]2c3c(C)nn(-c4ccccc4)c3N(CC)C(=O)[C@@H]2NC(=O)c2cccc(C(F)(F)F)c2)c1 (racemic) [Compound I-9, N-[rac-(4S,5R)-7-ethyl-3-methyl-4-[3-[2-(morpholinomethyl)prop-2-enoylamino]phenyl]-6-oxo-1-phenyl-4,5-dihydropyrazolo[3,4-b]pyridin-5-yl]-3-(trifluoromethyl)benzamide]
IC50 [1, 2]: ≤ 200 nM
IC50 [1, 4]: ≤ 200 nM
Emax (DCN1 protein): 80 to 100%

C=C(CN1CC(F)(F)C1)C(=O)Nc1cccc([C@@H]2c3c(C)nn(-c4ccccc4)c3N(CC)C(=O)[C@H]2NC(=O)c2cccc(C(F)(F)F)c2)c1 (racemic) [Compound I-11]
IC50 [1, 2]: ≤ 200 nM
IC50 [1, 3]: ≤ 200 nM
Emax (DCN1 protein): 80 to 100%

C=C(CN1CCOCC1)C(=O)Nc1ccccc1[C@H]1c2cnn(-c3ccccc3)c2N(CC)C(=O)[C@@H]1NC(=O)c1cccc(C(F)(F)F)c1 (racemic) [Compound I-15]
IC50 [1, 2]: ≤ 200 nM
IC50 [1, 3]: ≤ 200 nM
Emax (DCN1 protein): 80 to 100%

C=C(C)C(=O)Nc1cccc([C@H]2c3c(C)nn(-c4ccccc4)c3N(CC)C(=O)[C@H]2NC(=O)c2cccc(C(F)(F)F)c2)c1 (racemic) [Compound I-17]
IC50 [1, 2]: > 3000 nM
IC50 [1, 4]: > 3000 nM
Emax (DCN1 protein): 0 to 30%

CC#CC(=O)Nc1cccc([C@H]2c3c(C)nn(-c4ccccc4)c3N(CC)C(=O)[C@H]2NC(=O)c2cccc(C(F)(F)F)c2)c1 (racemic) [Compound I-19]
IC50 [1, 2]: > 3000 nM
IC50 [1, 4]: > 3000 nM
Emax (DCN1 protein): 0 to 30%

CCN1C(=O)[C@@H](NC(=O)c2cccc(C(F)(F)F)c2)[C@@H](c2cccc(NC#N)c2)c2c(C)nn(-c3ccccc3)c21 (racemic) [Compound I-22]
IC50 [1, 2]: > 3000 nM
IC50 [1, 4]: > 3000 nM
Emax (DCN1 protein): 0 to 30%

C/C=C/C(=O)Nc1cccc([C@H]2c3c(C)nn(-c4ccccc4)c3N(CC)C(=O)[C@H]2NC(=O)c2cccc(C(F)(F)F)c2)c1 (racemic) [Compound I-23]
IC50 [1, 2]: > 3000 nM
IC50 [1, 4]: > 3000 nM
Emax (DCN1 protein): 0 to 30%

CCN1C(=O)[C@@H](NC(=O)c2cccc(C(F)(F)F)c2)[C@@H](c2cccc(NC(=O)C3=CCCC3)c2)c2c(C)nn(-c3ccccc3)c21 (racemic) [Compound I-24]
IC50 [1, 2]: > 3000 nM
IC50 [1, 4]: > 3000 nM
Emax (DCN1 protein): 0 to 30%

C=CC(=O)Nc1cccc([C@H]2c3c(C)nn(-c4ccccc4)c3N(CC)C(=O)[C@H]2NC(=O)c2cccc(C(F)(F)F)c2)c1 (racemic) [Compound I-25]
IC50 [1, 2]: > 3000 nM
IC50 [1, 4]: > 3000 nM
Emax (DCN1 protein): 0 to 30%

CCN1C(=O)[C@@H](NC(=O)c2cccc(C(F)(F)F)c2)[C@@H](c2cccc(NC(=O)/C=C/C(F)(F)F)c2)c2c(C)nn(-c3ccccc3)c21 (racemic) [Compound I-27]
IC50 [1, 2]: > 3000 nM
IC50 [1, 4]: > 3000 nM
Emax (DCN1 protein): 0 to 30%

CCN1C(=O)[C@H](NC(=O)c2cccc(C(F)(F)F)c2)[C@@H](c2cccc(N3CC=CC3=O)c2)c2c(C)nn(-c3ccccc3)c21 (racemic) [Compound I-28, rac-N-((4R,5S)-7-ethyl-3-methyl-6-oxo-4-(3-(2-oxo-2,5-dihydro-1H-pyrrol-1-yl)phenyl)-1-phenyl-4,5,6,7-tetrahydro-1H-pyrazolo[3,4-b]pyridin-5-yl)-3-(trifluoromethyl)benzamide]
IC50 [1, 2]: 1000 to 3000 nM
IC50 [1, 4]: 1000 to 3000 nM
Emax (DCN1 protein): 80 to 100%

CCN1C(=O)[C@H](NC(=O)c2cccc(C(F)(F)F)c2)[C@@H](c2cccc(NC(=O)/C=C/CN(C)C)c2)c2c(C)nn(-c3ccccc3)c21 (racemic) [Compound I-38]
IC50 [1, 4]: 1000 to 3000 nM
Emax (DCN1 protein): 80 to 100%

C=C(C)C(=O)Nc1cccc([C@H]2c3c(C)nn(-c4ccccc4)c3N(CC)C(=O)[C@@H]2NC(=O)c2cccc(C(F)(F)F)c2)c1 (racemic) [Compound I-201]
Emax (DCN1 protein): 0 to 30%

CCN1C(=O)[C@@H](NC(=O)c2cccc(C(F)(F)F)c2)[C@@H](c2cccc(NC(=O)CCl)c2)c2c(C)nn(-c3ccccc3)c21 (racemic) [Compound I-203]
Emax (DCN1 protein): 0 to 30%

CCN1C(=O)[C@@H](NC(=O)c2cccc(C(F)(F)F)c2)[C@@H](c2cccc(NC(=O)/C=C/CN3CCOCC3)c2)c2c(C)nn(-c3ccccc3)c21 (racemic) [Compound I-205]
Emax (DCN1 protein): 0 to 30%

CCN1C(=O)[C@@H](NC(=O)c2cccc(C(F)(F)F)c2)[C@@H](c2cccc(NC(=O)COc3c(F)c(F)cc(F)c3F)c2)c2c(C)nn(-c3ccccc3)c21 (racemic) [Compound I-206]
Emax (DCN1 protein): 0 to 30%

C#CC(=O)Nc1cccc([C@H]2c3c(C)nn(-c4ccccc4)c3N(CC)C(=O)[C@@H]2NC(=O)c2cccc(C(F)(F)F)c2)c1 (racemic) [Compound I-207]
Emax (DCN1 protein): 80 to 100%

CCN1C(=O)[C@H](NC(=O)c2cccc(C(F)(F)F)c2)[C@@H](c2ccccc2NC(=O)CCl)c2c(C)nn(-c3ccccc3)c21 (racemic) [Compound I-208]
Emax (DCN1 protein): 80 to 100%

CCN1C(=O)[C@H](NC(=O)c2cccc(C(F)(F)F)c2)[C@@H](c2cccc(NS(=O)(=O)CCl)c2)c2c(C)nn(-c3ccccc3)c21 (racemic) [Compound I-209]
Emax (DCN1 protein): 0 to 30%

CCN1C(=O)[C@H](NC(=O)c2cccc(C(F)(F)F)c2)[C@@H](c2ccccc2NC(=O)CCl)c2cnn(-c3ccccc3)c21 [Compound I-178, N-((4S,5R)-4-(2-(2-chloroacetamido)phenyl)-7-ethyl-6-oxo-1-phenyl-4,5,6,7-tetrahydro-1H-pyrazolo[3,4-b]pyridin-5-yl)-3-(trifluoromethyl)benzamide]
% Adduct Formation (MS Emax) (DCN1 protein): + (MS Emax % adduct formation greater than or equal to 0.0 and less than or equal to 30.0)

CCN1C(=O)[C@@H](NC(=O)c2cccc(C(F)(F)F)c2)[C@H](c2ccccc2NC(=O)CCl)c2cnn(-c3ccccc3)c21 [Compound I-197, N-((4R,5S)-4-(2-(2-chloroacetamido)phenyl)-7-ethyl-6-oxo-1-phenyl-4,5,6,7-tetrahydro-1H-pyrazolo[3,4-b]pyridin-5-yl)-3-(trifluoromethyl)benzamide]
Emax (DCN1 protein): 80 to 100%

CCN1C(=O)[C@@H](NC(=O)c2cccc(C(F)(F)F)c2)[C@@H](c2cccc(NC(=O)C3=CCC3)c2)c2c(C)nn(-c3ccccc3)c21 [Compound I-202]
Emax (DCN1 protein): 0 to 30%

Source: patent publication US12435087B2, “Modulators of DCN-1 and methods of use thereof” (Cellarity, Inc., priority 2023, dated 2025)
